Data published in patent US12404295B2, “(Hetero)aryl-methyl-thio-beta-D-galactopyranoside derivatives” (Idorsia Pharmaceuticals Ltd, priority 2019, dated 2025).
Like-named read-outs stand apart in the source and are kept apart here.

Columns and labels:
[1] = target: human Gal-1 (hGal-1) (Homo sapiens (Human), UniProt P09382); assay: competitive binding assay: biotinylated hGal-1 binding to microplate-adsorbed asialofetuin (ASF); conditions: Table 15; read-out: IC50 (Galectin-1 inhibition)
Method: Inhibition data of the epimers R and S of selected Examples are also listed.
(§1) Evaluation of Compound Inhibitory Activity (IC50)
The inhibitory activity of compounds is determined in competitive binding assays. This spectrophotometric assay measures the binding of biotinylated human Gal-3 (hGal-3) or human Gal-1 (hGal-1), respectively, to a microplate-adsorbed glycoprotein, asialofetuin (ASF) (Proc Natl Acad Sci USA. 2013 Mar. 26; 110(13):5052-7.).
Briefly, compounds are serially diluted in DMSO (working dilutions). ASF-coated 384 well plates are supplemented with 22.8 μL/well of biotinylated hGal-3 or hGal-1 in assay buffer (i.e. 300-1000 ng/mL biotinylated hGal-3 or hGal-1) to which 1.2 μL of compound working dilutions are added and mixed.
(§2) Plates are incubated for 3 hours at 4° C., then washed with cold assay buffer (3×50 uL), incubated for 1 hour with 25 μL/well of a streptavidin-peroxidase solution (diluted in assay buffer to 80 ng/mL) at 4° C., followed by further washing steps with assay buffer (3×50 uL). Finally, 25 μL/well of ABTS substrate is added.
(§3) The calculated IC50 values may fluctuate depending on the daily assay performance. Fluctuations of this kind are known to those skilled in the art. IC50 values from several measurements are given as mean values.

[2] = target: human Gal-3 (hGal-3) (Homo sapiens (Human), UniProt P17931); assay: competitive binding assay: biotinylated hGal-3 binding to microplate-adsorbed asialofetuin (ASF)
Method: If not explicitly mentioned otherwise, the inhibition data refer to the binding of biotinylated human Gal-3 (hGal-3).
as §1
The inhibitory activity of compounds is determined in competitive binding assays.
Briefly, compounds are serially diluted in DMSO (working dilutions).
as §2, §3

[3] = Gal-3 inhibition, binding of biotinylated hGal-3 to ASF, mean values, read-out: IC50
[4] = Table 14, read-out: IC50 (Gal-3 inhibition)

Chain of human Gal-1 (hGal-1) (P09382 whole entry): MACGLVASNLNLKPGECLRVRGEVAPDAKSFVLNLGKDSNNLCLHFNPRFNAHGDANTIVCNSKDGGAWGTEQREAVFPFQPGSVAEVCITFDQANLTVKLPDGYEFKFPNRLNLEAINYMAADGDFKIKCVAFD
Chain of human Gal-3 (hGal-3) (P17931 whole entry): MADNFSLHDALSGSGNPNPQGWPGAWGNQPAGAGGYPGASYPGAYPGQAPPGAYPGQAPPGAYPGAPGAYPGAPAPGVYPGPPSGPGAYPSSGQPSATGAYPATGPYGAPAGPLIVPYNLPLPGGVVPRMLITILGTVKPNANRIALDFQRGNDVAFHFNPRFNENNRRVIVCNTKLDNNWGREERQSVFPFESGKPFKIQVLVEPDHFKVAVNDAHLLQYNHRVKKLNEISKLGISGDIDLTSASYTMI

SMILES	IC50 [1]	IC50 [2, 3]	IC50 [2, 4]
Cc1c(F)cccc1[C@H](S[C@@H]1O[C@H](CO)[C@H](O)[C@H](n2cc(-c3cc(F)c(F)c(F)c3)nn2)[C@H]1O)C(C)(C)O (single isomer, unassigned) [Example 2.31.114R.]	7240 nM	180 nM	
Cc1nc(C(S[C@@H]2O[C@H](CO)[C@H](O)[C@H](n3cc(-c4cc(F)c(F)c(F)c4)nn3)[C@H]2O)C(C)(C)O)c(C)s1 (stereo partly drawn) [Example 2.31.123., (2S,3R,4S,5R,6R)-2-((1-(2,5-Dimethylthiazol-4-yl)-2-hydroxy-2-methylpropyl)thio)-6-(hydroxymethyl)-4-(4-(3,4,5-trifluorophenyl)-1H-1,2,3-triazol-1-yl)tetrahydro-2H-pyran-3,5-diol]	1740 nM		
Cc1nc([C@@H](S[C@@H]2O[C@H](CO)[C@H](O)[C@H](n3cc(-c4cc(F)c(F)c(F)c4)nn3)[C@H]2O)C(C)(C)O)c(C)s1 [Example 2.31.123R., (2S,3R,4S,5R,6R)-2-(((R)-1-(2,5-Dimethylthiazol-4-yl)-2-hydroxy-2-methylpropyl)thio)-6-(hydroxymethyl)-4-(4-(3,4,5-trifluorophenyl)-1H-1,2,3-triazol-1-yl)tetrahydro-2H-pyran-3,5-diol]	1190 nM		
Cc1nc([C@H](S[C@@H]2O[C@H](CO)[C@H](O)[C@H](n3cc(-c4cc(F)c(F)c(F)c4)nn3)[C@H]2O)C(C)(C)O)c(C)s1 [Example 2.31.123S., (2S,3R,4S,5R,6R)-2-(((S)-1-(2,5-Dimethylthiazol-4-yl)-2-hydroxy-2-methylpropyl)thio)-6-(hydroxymethyl)-4-(4-(3,4,5-trifluorophenyl)-1H-1,2,3-triazol-1-yl)tetrahydro-2H-pyran-3,5-diol]	29400 nM		
CO[C@@H]1[C@@H](n2cc(-c3cc(F)c(F)c(F)c3)nn2)[C@@H](O)[C@@H](CO)O[C@H]1S[C@H](c1ccccc1C(F)(F)F)[C@]1(O)CCOC(C)(C)C1 [Example 2.43.112RS.I., (2R,3R,4S,5R,6S)-6-(((R)-((S)-4-Hydroxy-2,2-dimethyltetrahydro-2H-pyran-4-yl)(2-(trifluoromethyl)phenyl)methyl)thio)-2-(hydroxymethyl)-5-methoxy-4-(4-(3,4,5-trifluorophenyl)-1H-1,2,3-triazol-1-yl)tetrahydro-2H-pyran-3-ol]	1300 nM		
OC[C@H]1O[C@@H](S[C@H](c2ccccc2Cl)C2(O)CCC(F)(F)CC2)[C@H](O)[C@@H](n2cc(-c3cc(F)c(F)c(F)c3)nn2)[C@H]1O [Example 2.44.111R., (2S,3R,4S,5R,6R)-2-(((R)-(2-Chlorophenyl)(4,4-difluoro-1-hydroxycyclohexyl)methyl)thio)-6-(hydroxymethyl)-4-(4-(3,4,5-trifluorophenyl)-1H-1,2,3-triazol-1-yl)tetrahydro-2H-pyran-3,5-diol]	1060 nM		
OC[C@H]1O[C@@H](S[C@@H](c2ccccc2Cl)C2(O)CCC(F)(F)CC2)[C@H](O)[C@@H](n2cc(-c3cc(F)c(F)c(F)c3)nn2)[C@H]1O [Example 2.44.111S., (2S,3R,4S,5R,6R)-2-(((S)-(2-Chlorophenyl)(4,4-difluoro-1-hydroxycyclohexyl)methyl)thio)-6-(hydroxymethyl)-4-(4-(3,4,5-trifluorophenyl)-1H-1,2,3-triazol-1-yl)tetrahydro-2H-pyran-3,5-diol]	47500 nM		
CC(C)Cc1c([C@@H](S[C@@H]2O[C@H](CO)[C@H](O)[C@H](n3cc(-c4cc(F)c(F)c(F)c4)nn3)[C@H]2O)C2(O)CCC(F)(F)CC2)noc1C1CC1 [Example 2.44.131 R., (2S,3R,4S,5R,6R)-2-(((R)-(5-Cyclopropyl-4-isobutylisoxazol-3-yl)(4,4-difluoro-1-hydroxycyclohexyl)methyl)thio)-6-(hydroxymethyl)-4-(4-(3,4,5-trifluorophenyl)-1H-1,2,3-triazol-1-yl)tetrahydro-2H-pyran-3,5-diol]	90 nM		
CC(C)Cc1c(C(S[C@@H]2O[C@H](CO)[C@H](O)[C@H](n3cc(-c4cc(F)c(F)c(F)c4)nn3)[C@H]2O)C2(O)CCC(F)(F)CC2)noc1C1CC1 (stereo partly drawn) [Example 2.44.131., (2S,3R,4S,5R,6R)-2-(((5-Cyclopropyl-4-isobutylisoxazol-3-yl)(4,4-difluoro-1-hydroxycyclohexyl)methyl)thio)-6-(hydroxymethyl)-4-(4-(3,4,5-trifluorophenyl)-1H-1,2,3-triazol-1-yl)tetrahydro-2H-pyran-3,5-diol]	220 nM		
CO[C@@H]1[C@@H](n2cc(-c3cc(F)c(F)c(F)c3)nn2)[C@@H](O)[C@@H](CO)O[C@H]1SC(c1ncccc1C)C1(O)CCC2(CCOCC2)CC1 (stereo partly drawn) [Example 2.72.126.I., 9-((((2S,3R,4S,5R,6R)-5-Hydroxy-6-(hydroxymethyl)-3-methoxy-4-(4-(3,4,5-trifluorophenyl)-1H-1,2,3-triazol-1-yl)tetrahydro-2H-pyran-2-yl)thio)(3-methylpyridin-2-yl)methyl)-3-oxaspiro[5.5]undecan-9-ol]	730 nM		
COC(=O)N1CC(O)(C(S[C@@H]2O[C@H](CO)[C@H](O)[C@H](n3cc(-c4cc(F)c(F)c(F)c4)nn3)[C@H]2O)c2ccccc2C(F)(F)F)C1 (stereo partly drawn) [Example 2..58.112., Methyl 3-((((2S,3R,4S,5R,6R)-3,5-dihydroxy-6-(hydroxymethyl)-4-(4-(3,4,5-trifluorophenyl)-1H-1,2,3-triazol-1-yl)tetrahydro-2H-pyran-2-yl)thio)(2-(trifluoromethyl)phenyl)methyl)-3-hydroxyazetidine-1-carboxylate]		400 nM	
O=C(NC1CC1)N1CC(O)(C(S[C@@H]2O[C@H](CO)[C@H](O)[C@H](n3cc(-c4cc(F)c(F)c(F)c4)nn3)[C@H]2O)c2ccccc2C(F)(F)F)C1 (stereo partly drawn) [Example 2..59.11.2, N-Cyclopropyl-3-((((2S,3R,4S,5R,6R)-3,5-dihydroxy-6-(hydroxymethyl)-4-(4-(3,4,5-trifluorophenyl)-1H-1,2,3-triazol-1-yl)tetrahydro-2H-pyran-2-yl)thio)(2-(trifluoromethyl)phenyl)methyl)-3-hydroxyazetidine-1-carboxamide]		290 nM	
CO[C@@H]1[C@@H](n2cc(-c3ccc(F)c(F)c3F)nn2)[C@@H](O)[C@@H](CO)O[C@H]1SC(c1ncccc1C)C1(O)CCC(F)(F)CC1 (stereo partly drawn) [Example 21.44.126.I., (2R,3R,4S,5R,6S)-6-(((4,4-Difluoro-1-hydroxycyclohexyl)(3-methylpyridin-2-yl)methyl)thio)-2-(hydroxymethyl)-5-methoxy-4-(4-(2,3,4-trifluorophenyl)-1H-1,2,3-triazol-1-yl)tetrahydro-2H-pyran-3-ol]			60 nM
CO[C@@H]1[C@@H](n2cc(-c3cnc(F)c(C)c3)nn2)[C@@H](O)[C@@H](CO)O[C@H]1SC(c1ncccc1C)C1(O)CCC(F)(F)CC1 (stereo partly drawn) [Example 24.44.126.I, (2R,3R,4S,5R,6S)-6-(((4,4-Difluoro-1-hydroxycyclohexyl)(3-methylpyridin-2-yl)methyl)thio)-4-(4-(6-fluoro-5-methylpyridin-3-yl)-1H-1,2,3-triazol-1-yl)-2-(hydroxymethyl)-5-methoxytetrahydro-2H-pyran-3-ol]	160 nM		
CO[C@@H]1[C@@H](n2cc(-c3cnc(F)c(C)c3)nn2)[C@@H](O)[C@@H](CO)O[C@H]1SC(c1ncccc1C)C1(O)CCC(F)(F)CC1 (stereo partly drawn) [Example 24.44.126.I., (2R,3R,4S,5R,6S)-6-(((4,4-Difluoro-1-hydroxycyclohexyl)(3-methylpyridin-2-yl)methyl)thio)-4-(4-(6-fluoro-5-methylpyridin-3-yl)-1H-1,2,3-triazol-1-yl)-2-(hydroxymethyl)-5-methoxytetrahydro-2H-pyran-3-ol]			330 nM
